The values below come from PMC12329717 (Biochemistry, 2025).

Test [1] has as its target T1, HnoK (Caulobacter vibrioides, UniProt A0A0H3CAQ8, D543N).
T1 construct: gene CCNA_03088; N-terminal 6-His version also tested; E. coli BL21(DE3); homodimer
The test can be described thus: […] autophosphorylation, SDS-PAGE autoradiography. Format: biochemical. The following applies: 1 mM ATP with [gamma-32P]ATP, Mn2+ or Mg2+ 5 mM (Mn2+ preferred), room temperature; MBP fusion; labelled compound.

Test [2] addresses Caulobacter crescentus histidine kinase HnoK, as purified (Caulobacter crescentus). The test can be described thus: SEC; HiPrep Sephacryl S-200 HR column in 20 mM Tris, pH 8, 150 mM NaCl; elution volumes at the last step of purification.

T1 sequence (A0A0H3CAQ8 entry or part of it D543N): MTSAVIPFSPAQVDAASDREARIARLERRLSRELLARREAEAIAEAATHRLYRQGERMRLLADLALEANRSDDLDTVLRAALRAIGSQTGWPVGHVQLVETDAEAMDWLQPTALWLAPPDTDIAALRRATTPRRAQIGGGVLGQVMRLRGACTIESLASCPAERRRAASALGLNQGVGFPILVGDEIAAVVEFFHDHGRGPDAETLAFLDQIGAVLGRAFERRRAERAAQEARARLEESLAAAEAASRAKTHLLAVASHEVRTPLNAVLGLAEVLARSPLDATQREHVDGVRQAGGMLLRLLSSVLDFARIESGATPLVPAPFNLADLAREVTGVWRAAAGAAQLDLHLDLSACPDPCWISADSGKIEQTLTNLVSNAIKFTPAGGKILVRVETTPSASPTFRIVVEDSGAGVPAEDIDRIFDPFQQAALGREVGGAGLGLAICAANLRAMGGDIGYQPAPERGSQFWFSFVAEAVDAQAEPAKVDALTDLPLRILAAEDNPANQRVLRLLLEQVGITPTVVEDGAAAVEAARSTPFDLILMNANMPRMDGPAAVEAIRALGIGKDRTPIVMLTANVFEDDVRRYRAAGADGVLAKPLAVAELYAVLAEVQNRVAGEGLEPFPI

Turning to `Nc1ncnc2c1ncn2[C@@H]1O[C@H](COP(=O)(O)OP(=O)(O)OP(=O)(O)O)[C@@H](O)[C@H]1O` [ATP], in test [1], the “32P autophosphorylation, SDS-PAGE autoradiography” value is “D543N HnoK-MBP was used for the autophosphorylation assays shown”.

The term stoichiometry N denotes a count of units in the complex or per binding partner. “Caulobacter crescentus histidine kinase HnoK, as purified (from UniProt A0A0H3CAQ8 1-624) (enzyme)” registered a stoichiometry N in test [2] of 2.
